Converted amounts (≈) assume the structure as drawn.
Experiments:
Assay type in all cases: functional
Conditions in all cases: time 16-18 hrs
Staphylococcus aureus [1] = experiment: Antibacterial activity against methicillin-resistant Staphylococcus aureus ATCC 43300 after 16 to 18 hrs by broth microdilution method
Acinetobacter baumannii [2] = experiment: Antibacterial activity against drug-resistant Acinetobacter baumannii Bio 53272 after 16 to 18 hrs by broth microdilution method
Escherichia coli = experiment: Antibacterial activity against Escherichia coli ATCC 25922 after 16 to 18 hrs by broth microdilution method
Staphylococcus aureus [3] = experiment: Antibacterial activity against methicillin-susceptible Staphylococcus aureus ATCC 25923 after 16 to 18 hrs by broth microdilution method
Staphylococcus aureus [4] = experiment: Antibacterial activity against methicillin-susceptible Staphylococcus aureus ATCC 29213 after 16 to 18 hrs by broth microdilution method
Staphylococcus aureus [5] = experiment: Antibacterial activity against methicillin-resistant Staphylococcus aureus Bio-090770 after 16 to 18 hrs by broth microdilution method
[6] = system: Staphylococcus epidermidis; experiment: Antibacterial activity against Staphylococcus epidermidis after 16 to 18 hrs by broth microdilution method
Klebsiella pneumoniae = experiment: Antibacterial activity against Klebsiella pneumoniae CICC 21611 after 16 to 18 hrs by broth microdilution method
Acinetobacter baumannii [7] = experiment: Antibacterial activity against Acinetobacter baumannii Bio 34235 after 16 to 18 hrs by broth microdilution method
Staphylococcus aureus [8] = experiment: Antibacterial activity against methicillin-resistant Staphylococcus aureus ATCC 33591 after 16 to 18 hrs by broth microdilution method
Staphylococcus aureus [9] = experiment: Antibacterial activity against methicillin-susceptible Staphylococcus aureus ATCC 13709 after 16 to 18 hrs by broth microdilution method

| SMILES | MIC (Staphylococcus aureus [1]) | MIC (Acinetobacter baumannii [2]) | MIC (Escherichia coli) | MIC (Staphylococcus aureus [3]) | MIC (Staphylococcus aureus [4]) | MIC (Staphylococcus aureus [5]) | MIC [6] | MIC (Klebsiella pneumoniae) | MIC (Acinetobacter baumannii [7]) | MIC (Staphylococcus aureus [8]) | MIC (Staphylococcus aureus [9]) |
| --- | --- | --- | --- | --- | --- | --- | --- | --- | --- | --- | --- |
| CCCC[C@H](CN(O)C=O)C(=O)N1CCC[C@H]1c1nnc(-c2ccccc2)s1 | 4 µg/mL (≈ 9.94 µM) | > 16 µg/mL | > 16 µg/mL | 4 µg/mL (≈ 9.94 µM) | 8 µg/mL (≈ 19.9 µM) | 8 µg/mL (≈ 19.9 µM) | 4 µg/mL (≈ 9.94 µM) | > 16 µg/mL | > 16 µg/mL | 2 µg/mL (≈ 4.97 µM) | 2 µg/mL (≈ 4.97 µM) |
| CCCC[C@H](CN(O)C=O)C(=O)N1CCC[C@H]1c1nnc(-c2ccsc2)s1 | 0.25 µg/mL (≈ 0.612 µM) | 16 µg/mL (≈ 39.2 µM) | 64 µg/mL (≈ 157 µM) | 1 µg/mL (≈ 2.45 µM) | 1 µg/mL (≈ 2.45 µM) | 4 µg/mL (≈ 9.79 µM) | 2 µg/mL (≈ 4.9 µM) | 32 µg/mL (≈ 78.3 µM) | 32 µg/mL (≈ 78.3 µM) | 0.25 µg/mL (≈ 0.612 µM) | 4 µg/mL (≈ 9.79 µM) |
| CCCC[C@H](CN(O)C=O)C(=O)N1CCC[C@H]1c1nnc(-c2ccc(Br)s2)s1 | 0.25 µg/mL (≈ 0.513 µM) | 16 µg/mL (≈ 32.8 µM) | 64 µg/mL (≈ 131 µM) | 1 µg/mL (≈ 2.05 µM) | 2 µg/mL (≈ 4.1 µM) | 2 µg/mL (≈ 4.1 µM) | 1 µg/mL (≈ 2.05 µM) | 32 µg/mL (≈ 65.6 µM) | 32 µg/mL (≈ 65.6 µM) | 0.25 µg/mL (≈ 0.513 µM) | 2 µg/mL (≈ 4.1 µM) |
| CCCC[C@H](CN(O)C=O)C(=O)N1CCC[C@H]1c1nnc(C2CCOC2)s1 (stereo not given in full) | 1 µg/mL (≈ 2.52 µM) | > 16 µg/mL | > 16 µg/mL | 4 µg/mL (≈ 10.1 µM) | 4 µg/mL (≈ 10.1 µM) | 4 µg/mL (≈ 10.1 µM) | 4 µg/mL (≈ 10.1 µM) | > 16 µg/mL | > 16 µg/mL | 1 µg/mL (≈ 2.52 µM) | 4 µg/mL (≈ 10.1 µM) |
| CCCC[C@H](CN(O)C=O)C(=O)N1CCC[C@H]1c1nnc(-c2cc(C(F)(F)F)cc(C(F)(F)F)c2)s1 | 2 µg/mL (≈ 3.71 µM) | > 16 µg/mL | > 16 µg/mL | 2 µg/mL (≈ 3.71 µM) | 4 µg/mL (≈ 7.43 µM) | 4 µg/mL (≈ 7.43 µM) | > 16 µg/mL | > 16 µg/mL | > 16 µg/mL | 2 µg/mL (≈ 3.71 µM) | 2 µg/mL (≈ 3.71 µM) |
| CCCC[C@H](CN(O)C=O)C(=O)N1CCC[C@H]1c1nnc(-c2c(F)cccc2[N+](=O)[O-])s1 | 2 µg/mL (≈ 4.3 µM) | > 16 µg/mL | > 16 µg/mL | 2 µg/mL (≈ 4.3 µM) | 2 µg/mL (≈ 4.3 µM) | 2 µg/mL (≈ 4.3 µM) | 4 µg/mL (≈ 8.59 µM) | > 16 µg/mL | > 16 µg/mL | 1 µg/mL (≈ 2.15 µM) | 2 µg/mL (≈ 4.3 µM) |
| CCCC[C@H](CN(O)C=O)C(=O)N1CCC[C@H]1c1nnc(-c2ccc(C(F)(F)F)cc2)s1 | 2 µg/mL (≈ 4.25 µM) | 16 µg/mL (≈ 34 µM) | > 16 µg/mL | 2 µg/mL (≈ 4.25 µM) | 4 µg/mL (≈ 8.5 µM) | 2 µg/mL (≈ 4.25 µM) | 4 µg/mL (≈ 8.5 µM) | > 16 µg/mL | > 16 µg/mL | 1 µg/mL (≈ 2.13 µM) | 4 µg/mL (≈ 8.5 µM) |
| CN[C@H](CC(C)C)C(=O)N[C@H]1C(=O)N[C@@H](CC(N)=O)C(=O)N[C@H]2C(=O)N[C@H]3C(=O)N[C@H](C(=O)N[C@H](C(=O)O)c4cc(O)cc(O)c4-c4cc3ccc4O)[C@H](O)c3ccc(c(Cl)c3)Oc3cc2cc(c3O[C@@H]2O[C@H](CO)[C@@H](O)[C@H](O)[C@H]2O[C@H]2C[C@](C)(N)[C@H](O)[C@H](C)O2)Oc2ccc(cc2Cl)[C@H]1O [VANCOMYCIN] | 0.25 µg/mL (≈ 0.173 µM) | 16 µg/mL (≈ 11 µM) | 16 µg/mL (≈ 11 µM) | – | – | – | 16 µg/mL (≈ 11 µM) | 16 µg/mL (≈ 11 µM) | 16 µg/mL (≈ 11 µM) | – | – |
| CCCC[C@H](CN(O)C=O)C(=O)N1CCC[C@H]1c1nnc(-c2sccc2C)s1 | 0.25 µg/mL (≈ 0.592 µM) | 16 µg/mL (≈ 37.9 µM) | 64 µg/mL (≈ 151 µM) | 0.5 µg/mL (≈ 1.18 µM) | 0.5 µg/mL (≈ 1.18 µM) | 0.5 µg/mL (≈ 1.18 µM) | 0.5 µg/mL (≈ 1.18 µM) | 16 µg/mL (≈ 37.9 µM) | 32 µg/mL (≈ 75.7 µM) | 0.25 µg/mL (≈ 0.592 µM) | 0.5 µg/mL (≈ 1.18 µM) |
| CCCC[C@H](CN(O)C=O)C(=O)N1CCC[C@H]1c1nnc(-c2ccc(F)cc2)s1 | 1 µg/mL (≈ 2.38 µM) | 8 µg/mL (≈ 19 µM) | 16 µg/mL (≈ 38 µM) | 2 µg/mL (≈ 4.76 µM) | 2 µg/mL (≈ 4.76 µM) | 2 µg/mL (≈ 4.76 µM) | 2 µg/mL (≈ 4.76 µM) | > 16 µg/mL | > 16 µg/mL | 0.25 µg/mL (≈ 0.595 µM) | 1 µg/mL (≈ 2.38 µM) |

From ChEMBL document CHEMBL6121016, “Design, Synthesis, and Biological Evaluation of 1,3,4-Thiadiazole Derivatives as Novel Potent Peptide Deformylase Inhibitors for Combating Drug-Resistant Gram-Positive and -Negative Bacteria” (J Med Chem, 2025)
